{
  "source": "patent US10035810B2",
  "about": "“5,6-dihydro-4H-benzo[b]thieno-[2,3-d]azepine derivative” (PULMOCIDE LIMITED, priority 2014, dated 2018)",
  "key": {"[1]": {"system": "RANTES gene transcript", "experiment": "RSV infection in cotton rats: RANTES gene transcript in lung (qRT-PCR)", "type": "in vivo, cotton rats (Sigmodon hispidus)", "conditions": "for RANTES gene transcript % inhibition / RANTES gene transcript (/β-actin), Median: cotton rats, lung, intranasal", "experimental": "RSV Infection in Cotton Rats\nMale Sigmodon hispidus cotton rats between 6 and 8 weeks of age were infected with hRSV/A/Long (ATCC, Manassas, Va.; 10^5 pfu) in a volume of 0.1 mL of sucrose stabilizing media. Compound (I) was dissolved in 100% DMSO (at 3.3, 10, 33 and 100 mg/mL), then diluted at 1:10 in isotonic saline to achieve 10% DMSO in all treatments. Formulations were then sonicated to produce suspensions. The resulting suspensions were administered intranasally (50 μL) by pipette 4 hr before infection (on day 0), and then on days 1, 2 and 3 post infection. Four days after RSV challenge, the animals were euthanised and the lungs were removed. The left lobe was used for viral titration via plaque assay and the lingular lobe for RSV/A/Long NS-1 qRT-PCR and cytokine qRT-PCR.\nTotal RNA was also extracted from homogenized lung tissue (RNeasy purification kit; Qiagen) and a sample (1 μg) was used to prepare cDNA using QuantiTect Reverse Transcription Kit (Qiagen). For real-time PCR reactions (RSV NS-1 and RANTES genes) the QuantiFast SYBR® Green PCR Kit (Qiagen) was used in a final volume of 25 μL, with final primer concentrations of 0.5 μM. Amplifications were performed on a Bio-Rad iCycler for 1 cycle of 95° C. for 3 min, followed by 40 cycles of 95° C. for 10 sec, 60° C. for 10 sec, and 72° C. for 15 sec. Baseline cycles and cycle threshold (Ct) were calculated by the iQ5 software in the PCR Base Line Subtracted Curve Fit mode. The standard curves were developed using serially diluted cDNA sample most enriched in the transcript of interest (e.g., lungs from day 4 post-primary RSV infection). The Ct values were plotted against login cDNA dilution factor. These curves were used to convert the Ct values obtained for different samples to relative expression units which were then normalized to the level of β-actin mRNA (“housekeeping gene”) expressed in the corresponding sample. The mRNA levels were expressed as the geometric mean±SEM for all animals in a group."}, "[2]": {"system": "RSV A2", "experiment": "Virus titre in air-liquid interface (ALI) cultured bronchial epithelial cells (plaque assay)", "type": "cell-based, respiratory syncytial virus", "experimental": "Assessment of Virus Titre in Air-Liquid Interface (ALI) Cultured Bronchial Epithelial Cells\nALI cultured human bronchial epithelial cells were sourced from Epithelix Sàrl (Geneva, Switzerland) and maintained by changing the basal media every 3-4 days, whilst the apical surface was washed once weekly with PBS. On day 0, the apical surface of each well was washed once with sterile PBS (300 μL) and the inserts were transferred to new 24-well plates containing fresh MucilAir culture medium (780 μL; EP04MM). RSV A2 (50 μL; diluted in MucilAir culture medium to give a final MOI of 0.01) was added to cells for 1 hr (37° C./5% CO2). For the purposes of standardizing MOI calculations, each MucilAir insert was estimated to contain 2×10^5 apical facing cells per well. Virus inoculum was removed with a pipette and inserts were washed twice with sterile PBS (300 μL).\nSampling was conducted by adding sterile PBS (300 μL) to the apical surface of each well for 5 min. The apical sample was then removed and transferred to tubes containing 50% sucrose dissolved in PBS (100 μL) before being stored at −80° C. This harvesting procedure was repeated daily beginning on day 0 and concluding on day 7. […]\nVirus titre was quantified by plaque assay. […] Plaques were counted by eye and confirmed using light microscopy, allowing the calculation of plaque forming units per mL."}},
  "data": [
    {"smiles": "Cc1cnc(N2CC3(CCOCC3)C2)c(C(=O)Nc2ccc(C(=O)N3CCc4cc(C(=O)Nc5c(C)cccc5F)sc4-c4ccccc43)cc2)c1", "note": "[Compound (I), N-(2-fluoro-6-methylphenyl)-6-(4-(5-methyl-2-(7-oxa-2-azaspiro[3.5]nonan-2-yl)nicotinamido)benzoyl)-5,6-dihydro-4H-benzo[b]thieno[2,3-d]azepine-2-carboxamide]", "values": [
      {"measurement": "RANTES gene transcript % inhibition", "setting": "[1]; 0.33 mg/mL", "result": 28, "unit": "%"},
      {"measurement": "RANTES gene transcript (/β-actin), Median", "setting": "[1]; 0.33 mg/mL", "result": "0.21 /β-actin"},
      {"measurement": "RANTES gene transcript % inhibition", "setting": "[1]; 1.0 mg/mL", "result": 45, "unit": "%"},
      {"measurement": "RANTES gene transcript (/β-actin), Median", "setting": "[1]; 1.0 mg/mL", "result": "0.16 /β-actin"},
      {"measurement": "RANTES gene transcript % inhibition", "setting": "[1]; 3.3 mg/mL", "result": 62, "unit": "%"},
      {"measurement": "RANTES gene transcript (/β-actin), Median", "setting": "[1]; 3.3 mg/mL", "result": "0.11 /β-actin"},
      {"measurement": "RANTES gene transcript % inhibition", "setting": "[1]; 10 mg/mL", "result": 55, "unit": "%"},
      {"measurement": "RANTES gene transcript (/β-actin), Median", "setting": "[1]; 10 mg/mL", "result": "0.13 /β-actin"},
      {"measurement": "RANTES transcripts in lung (in words)", "setting": "[1]; infected cotton rats", "result": "dose-dependent inhibition"},
      {"measurement": "Inhibition of RSV titre in ALI culture (in words)", "setting": "[2]; early intervention, daily day 0 to day 7, 0.1 μg/mL, over 7 days", "result": "complete inhibition"},
      {"measurement": "Virus titre in ALI culture (in words)", "setting": "[2]; late intervention, administered from day 3, days 6 and 7 post infection", "result": "dramatic reduction of virus titre"}
    ]}
  ]
}
